Values quoted from earlier work, collected in patent US5854268A, “Azetidine, pyrrolidine and piperidine derivatives” (Merck Sharp & Dohme, Ltd., priority 1994, dated 1998).

Details: therapeutic doses

CNS(=O)(=O)Cc1ccc2[nH]cc(CCN(C)C)c2c1 [sumatriptan]
adverse events in humans: certain adverse cardiovascular events
